Test results: ChEMBL document CHEMBL1201862, “PubChem BioAssay data set” (2004)
Activity calls are given as the source filed them. For most assays here, no stated cut-off is given here; in the data, actives have a measured AC50 and inactives only a lower limit.

Key:
[1] = A Cell-Based Confirmatory Screen for Compounds that Inhibit VEEV TC-83 (4).; type: functional
[2] = A Cell-Based Confirmatory Screen for Compounds that Inhibit VEEV, TC-83 (5).; type: functional
[3] = HIF luciferase reporter inhibitors, dose response, ARNT-TACC3 inhibitor project, cell-based, dry powder samples, luminescence, 2158-07 (AID 720561); type: functional
[4] = A375 melanoma cell viability loss, dose response, counter-screen for MITF inhibitor project, CellTiter-Glo luminescence, dry powder, set 4 (AID 624364); type: functional, cell-based; settings: A-375;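 further: A375 melanoma cells are MITF independent so this is a counter screen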
[5] = A375 melanoma cell cytotoxicity, dose response, counter-screen for MITF inhibitor project, CellTiter-Glo luminescence, dry powder, set 2 (AID 624489); type: functional, cell-based; settings: A-375;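 further: actives are compounds lowering A375 viability meaning general cytotoxicity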
[6] = biological target: Protein disulfide-isomerase (Homo sapiens, UniProt P07237); experiment: PDI inhibitors, insulin turbidity readout, confirmation, biochemical, dry powder samples, set 2 (AID 652146)
[7] = HepG2 cell cytotoxicity, dose response, cytotoxicity control, dry powder samples (AID 720568); type: functional, cell-based
Fatty acid synthase = Fatty acid synthase (Homo sapiens, UniProt P49327); experiment: FAS thioesterase domain inhibitors, SAR follow-up, biochemical, endpoint fluorescence intensity, powder samples (AID 652164); type: functional
[8] = cytotoxicity dependent on PAX8, dose response, cell-based, plate reader, dry powder (AID 743049); type: functional
[9] = PAX5 activity inhibitors, dose response, selectivity assay for PAX8 inhibitor project, cell-based, plate reader, dry powder samples (AID 743047); type: functional;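 further: HEK293 cells carrying a Pax5 driven CD19 promoter luciferase reporter; potency of inhibitors that lower reporter luminescence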
[10] = control 3'UTR Renilla luciferase suppression, dose response, counter-screen for Shn3 inhibitor project, cell-based, Clone20-Shn3RL, cherry-picked (AID 624133); type: functional
[11] = Shn3 3'UTR reporter inhibitors, dose response, cell-based, Clone20 osteoblasts, firefly luciferase, cherry-picked (AID 624132); type: functional;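 further: firefly luciferase luminescence from reporter carrying the Shn3 3'UTR in osteoblasts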
[12] = A2780 ovarian cancer cell cytotoxicity, dose response, cytotoxicity control, plate reader, dry powder samples (AID 743046); type: functional, cell-based
[13] = IOSE-T80 ovarian epithelial cell cytotoxicity, dose response, cytotoxicity control for PAX8 inhibitor project, plate reader, dry powder samples (AID 743045); type: functional, cell-based
[14] = HepG2 cell cytotoxicity, dose response, cytotoxicity control for Shn3 inhibitor project, CellTiter-Glo, cherry-picked (AID 624134); type: functional, cell-based
[15] = biological target: Heat shock protein HSP 90-alpha (Homo sapiens, UniProt P07900); type: functional, organism-based
[16] = cytotoxicity in COV434 cells, dose response, cytotoxicity control for PAX8 inhibitor project, cell-based, plate reader, dry powder, SA7 (AID 743145); type: functional
[17] = NIH:OVCAR-3 ovarian cancer cell cytotoxicity, dose response, PAX8 inhibitor project, plate reader, dry powder samples (AID 743044); type: functional, cell-based
[18] = PAX2 cell-based inhibition, dose response, selectivity assay for PAX8 inhibitor project, plate reader, dry powder samples (AID 743048); type: functional;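 further: HEK293 cells carrying a WT1 promoter luciferase reporter driven by expressed Pax2; potency is for inhibition of Pax2 driven reporter signal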
[19] = cytotoxicity in COV362 ovarian cancer cells, dose response, cytotoxicity control for PAX8 inhibitor project, cell-based, plate reader, dry powder, SA12 (AID 743144); type: functional
HEK293 = experiment: inhibitors of LMP1-driven NF-kB reporter, dose response, cell-based, HEK293, luciferase, cherry-pick (AID 588343); type: functional; settings: Homo sapiens
[20] = IGROV1 ovarian cancer cell cytotoxicity, dose response, PAX8 inhibitor project, plate reader, dry powder samples (AID 743043); type: functional, cell-based; settings: IGROV-1
[21] = cytotoxicity in OV-90 ovarian cancer cells, dose response, PAX8 inhibitor project, cell-based, plate reader, dry powder, SA8 (AID 743149); type: functional
Paired box protein Pax-8 = Paired box protein Pax-8 (Homo sapiens, UniProt Q06710); experiment: inhibitors of PAX8-driven TPO luciferase reporter, dose response, RMG-I cells, cherry-pick (AID 687027); type: functional, cell-based;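 further: luciferase reporter driven by Pax8 target thyroperoxidase promoter measured by SteadyGlo luminescence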
[22] = cytotoxicity in OVCAR4 cells, dose response, cytotoxicity control for PAX8 inhibitor project, cell-based, plate reader, dry powder, SA11 (AID 743150); type: functional; settings: OVCAR-4

Sequence of Paired box protein Pax-8 (Q06710 whole entry): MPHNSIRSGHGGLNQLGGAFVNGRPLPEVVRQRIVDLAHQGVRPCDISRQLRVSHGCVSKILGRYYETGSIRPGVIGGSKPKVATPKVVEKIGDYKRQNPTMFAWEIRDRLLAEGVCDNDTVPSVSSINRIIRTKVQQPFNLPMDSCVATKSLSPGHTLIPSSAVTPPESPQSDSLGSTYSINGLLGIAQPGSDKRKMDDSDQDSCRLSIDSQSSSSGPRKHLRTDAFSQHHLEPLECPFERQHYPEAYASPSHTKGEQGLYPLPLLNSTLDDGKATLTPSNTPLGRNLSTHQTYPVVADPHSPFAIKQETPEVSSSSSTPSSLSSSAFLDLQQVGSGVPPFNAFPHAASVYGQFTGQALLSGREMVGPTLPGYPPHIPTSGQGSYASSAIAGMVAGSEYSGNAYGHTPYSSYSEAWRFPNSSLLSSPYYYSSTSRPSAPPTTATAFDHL
Sequence of Fatty acid synthase (P49327 whole entry, the tested form may be a part): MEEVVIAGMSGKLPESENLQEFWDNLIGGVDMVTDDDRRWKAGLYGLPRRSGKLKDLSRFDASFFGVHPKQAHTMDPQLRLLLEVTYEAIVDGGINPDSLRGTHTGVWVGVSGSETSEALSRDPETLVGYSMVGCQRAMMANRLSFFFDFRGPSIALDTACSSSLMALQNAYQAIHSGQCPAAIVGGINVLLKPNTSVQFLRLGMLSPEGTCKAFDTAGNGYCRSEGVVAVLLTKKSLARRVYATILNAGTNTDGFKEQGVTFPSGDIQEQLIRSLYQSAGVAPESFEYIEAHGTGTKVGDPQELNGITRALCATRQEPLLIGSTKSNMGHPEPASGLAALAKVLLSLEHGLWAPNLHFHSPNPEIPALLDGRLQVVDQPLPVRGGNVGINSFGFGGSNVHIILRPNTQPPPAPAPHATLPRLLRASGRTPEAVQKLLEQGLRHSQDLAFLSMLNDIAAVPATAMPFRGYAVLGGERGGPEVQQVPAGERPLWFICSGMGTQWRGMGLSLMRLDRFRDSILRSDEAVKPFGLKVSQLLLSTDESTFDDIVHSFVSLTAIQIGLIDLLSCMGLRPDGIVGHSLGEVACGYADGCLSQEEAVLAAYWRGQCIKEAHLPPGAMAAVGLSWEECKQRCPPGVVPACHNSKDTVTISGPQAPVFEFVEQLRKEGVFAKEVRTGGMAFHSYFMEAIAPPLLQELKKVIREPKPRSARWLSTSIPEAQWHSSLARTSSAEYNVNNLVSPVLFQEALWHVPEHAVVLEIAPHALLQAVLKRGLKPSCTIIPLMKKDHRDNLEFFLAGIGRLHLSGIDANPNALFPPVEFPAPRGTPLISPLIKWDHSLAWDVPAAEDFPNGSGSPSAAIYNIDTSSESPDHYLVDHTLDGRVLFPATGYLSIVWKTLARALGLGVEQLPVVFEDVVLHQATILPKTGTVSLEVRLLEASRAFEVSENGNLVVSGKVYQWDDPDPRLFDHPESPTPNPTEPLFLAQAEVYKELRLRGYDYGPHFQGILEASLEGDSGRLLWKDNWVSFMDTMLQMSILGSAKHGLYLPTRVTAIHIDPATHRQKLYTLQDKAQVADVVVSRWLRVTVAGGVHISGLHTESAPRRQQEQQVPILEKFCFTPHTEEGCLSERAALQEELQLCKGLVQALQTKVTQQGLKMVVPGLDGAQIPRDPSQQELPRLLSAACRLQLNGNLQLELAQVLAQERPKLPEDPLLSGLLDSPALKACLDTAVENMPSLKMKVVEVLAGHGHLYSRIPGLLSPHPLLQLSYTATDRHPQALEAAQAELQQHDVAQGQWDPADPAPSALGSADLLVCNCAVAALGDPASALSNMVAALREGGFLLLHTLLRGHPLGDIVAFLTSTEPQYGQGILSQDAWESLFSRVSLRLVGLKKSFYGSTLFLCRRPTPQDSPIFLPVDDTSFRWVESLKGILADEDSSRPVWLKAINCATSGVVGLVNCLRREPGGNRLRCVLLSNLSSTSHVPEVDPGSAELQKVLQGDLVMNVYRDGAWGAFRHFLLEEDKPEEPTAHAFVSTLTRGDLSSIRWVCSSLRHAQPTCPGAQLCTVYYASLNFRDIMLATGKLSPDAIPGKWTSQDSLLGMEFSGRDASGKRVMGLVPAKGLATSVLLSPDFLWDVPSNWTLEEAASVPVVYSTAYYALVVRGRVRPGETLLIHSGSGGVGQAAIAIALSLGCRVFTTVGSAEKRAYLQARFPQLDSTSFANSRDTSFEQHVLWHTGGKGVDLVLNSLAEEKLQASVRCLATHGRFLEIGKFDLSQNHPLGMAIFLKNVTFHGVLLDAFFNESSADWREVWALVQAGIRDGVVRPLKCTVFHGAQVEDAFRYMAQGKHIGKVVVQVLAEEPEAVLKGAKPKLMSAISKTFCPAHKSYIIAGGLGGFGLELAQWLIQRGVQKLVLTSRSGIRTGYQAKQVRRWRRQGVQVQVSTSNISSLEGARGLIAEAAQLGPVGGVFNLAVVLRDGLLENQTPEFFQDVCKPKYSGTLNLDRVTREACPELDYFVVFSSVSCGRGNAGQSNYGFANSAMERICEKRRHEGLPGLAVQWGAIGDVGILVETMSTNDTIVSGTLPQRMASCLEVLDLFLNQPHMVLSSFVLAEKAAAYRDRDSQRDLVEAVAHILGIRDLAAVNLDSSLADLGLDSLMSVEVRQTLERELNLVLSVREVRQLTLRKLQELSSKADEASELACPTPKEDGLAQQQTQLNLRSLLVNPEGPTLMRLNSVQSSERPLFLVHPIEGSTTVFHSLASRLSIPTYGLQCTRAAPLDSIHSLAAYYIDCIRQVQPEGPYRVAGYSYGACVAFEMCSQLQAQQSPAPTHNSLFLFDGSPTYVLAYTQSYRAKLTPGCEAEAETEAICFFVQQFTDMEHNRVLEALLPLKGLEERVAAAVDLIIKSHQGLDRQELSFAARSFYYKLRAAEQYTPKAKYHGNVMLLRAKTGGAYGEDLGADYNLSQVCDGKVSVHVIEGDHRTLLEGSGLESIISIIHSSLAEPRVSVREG
Sequence of Protein disulfide-isomerase (P07237 whole entry): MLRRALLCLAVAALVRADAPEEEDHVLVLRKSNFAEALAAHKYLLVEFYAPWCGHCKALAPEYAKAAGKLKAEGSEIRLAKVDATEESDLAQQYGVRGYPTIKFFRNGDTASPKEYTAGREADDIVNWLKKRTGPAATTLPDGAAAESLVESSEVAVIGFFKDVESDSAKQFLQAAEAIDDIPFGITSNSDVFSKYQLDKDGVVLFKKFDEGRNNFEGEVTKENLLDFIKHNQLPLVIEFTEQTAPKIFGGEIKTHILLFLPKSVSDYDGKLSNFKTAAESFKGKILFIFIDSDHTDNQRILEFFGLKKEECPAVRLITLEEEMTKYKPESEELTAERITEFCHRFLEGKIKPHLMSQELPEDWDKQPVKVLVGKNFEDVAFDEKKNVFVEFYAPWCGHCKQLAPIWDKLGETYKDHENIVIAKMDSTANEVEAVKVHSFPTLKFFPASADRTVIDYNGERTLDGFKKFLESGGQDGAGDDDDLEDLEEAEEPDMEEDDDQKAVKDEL

## CCN1CCN(Cc2nc3ccc([N+](=O)[O-])cc3c(=O)n2-c2cccc(F)c2)CC1
[1]
  IC50: 0.31 µM (active)
[2]
  IC50: 0.45 µM (active)

## Cc1nnc(NC(=O)c2ccc(S(=O)(=O)N3CCCCC3)cc2)o1
[3]
  AC50: > 100 µM (inactive)

## O=C1C(Nc2ccccc2)=C(N2CCN(c3ccccc3)CC2)C(=O)c2ccccc21
[4]
  AC50: > 70 µM (inactive)
[5]
  AC50: > 70 µM (inactive)

## C=CCOc1ccc(CN2CCC(CCOc3ccccc3)(C(=O)OCC)CC2)cc1Cl
[6]
  AC50: > 30 µM (inactive)

## O=C1CCN(Cc2ccccc2)c2cc3ccccc3cc21
[7]
  AC50: > 30 µM (inactive)

## CN(C)S(=O)(=O)c1ccc(-c2csc(NC(=O)C3CCC3)n2)cc1
Fatty acid synthase
  IC50: 1.36 µM (active)

## CC(=O)NC(c1ccc(Cl)cc1)c1ccc2cccnc2c1O (stereo not given)
[8]
  AC50: 8.52 µM (active)
[9]
  AC50: 2.31 µM (active)
[10]
  AC50: 0.977 µM (active)
[11]
  AC50: 0.299 µM (active)
[12]
  AC50: 20.8 µM (active)
[13]
  AC50: 4.43 µM (active)
[14]
  AC50: 1.47 µM (active)
[15]
  AC50: 2.68 µM (active)
[16]
  AC50: 5.09 µM (active)
[17]
  AC50: 4.57 µM (active)
[18]
  AC50: 1.57 µM (active)
[19]
  AC50: 7.17 µM (active)
HEK293
  AC50: 4.08 µM (active)
[20]
  AC50: 7.12 µM (active)
[21]
  AC50: 5.27 µM (active)
Paired box protein Pax-8
  AC50: 2.09 µM (active)
[22]
  AC50: 18.1 µM (active)
